Data from PubChem BioAssay AID651871 (Sanford-Burnham Center for Chemical Genomics, 2012).
Where “and” joins values, the source holds several entries; their conditions need not be identical. Identical values can stand only once. Calls of active or inactive are those of the source.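 The calls were made as follows: active = compound whose mean IC50 is 10 µM or lower in every cell protection panel where tested; inactive = the rest.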

Legend:
[1] = tested on: HL-1; assay: protection of cardiomyocytes from stress damage, SAR follow-up, cell-based, panel, H9c2 and HL-1, ATP luminescence, set 2 (AID 651871); details: H9c2/HL-1 cardiomyocytes;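 also: cells exposed to stressor for 2 h before ATP readout; potency for protection of cells against peroxide damage not for cytotoxicity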
[2] = tested on: H9c2; assay: as above; details: H9c2/HL-1 cardiomyocytes
[3] = H2O2 oxidative stress, with H2O2, mean of runs
[4] = 2-deoxyglucose stress, with 2-deoxyglucose, mean of runs

Row | SMILES | IC50 [1, 3] | IC50 [2, 3] | IC50 [1, 4] | IC50 [2, 4]
1 | COc1cc(-c2cc(C(=O)Nc3cccc(C(=O)NCc4ccccc4)c3)c3ccccc3n2)cc(OC)c1OC | 3.97 µM | 0.411 µM |  | 
2 | CCOC(=O)c1cccc(NC(=O)CNC(=O)c2cc(-c3cc(OC)c(OC)c(OC)c3)nc3ccccc23)c1 | 3.41 µM | 0.28 µM | 2.9 µM | 2.72 µM
3 | COc1ccc2nc(-c3cc(OC)c(OC)c(OC)c3)cc(C(=O)NCC(=O)Nc3ccc(C(C)=O)cc3)c2c1 | 6.53 µM and 3.98 µM | 0.634 µM and 0.44 µM | 4.3 µM | 3.87 µM
4 | COc1ccc2c(c1OC)C(=O)N1c3ccccc3C(=O)N(Cc3cccc(Cl)c3Cl)C21 (centres undefined) | > 79 µM (inactive) | 0.215 µM and 0.391 µM and 11.7 µM (inactive) | 2.65 µM and 3.05 µM and > 79 µM (inactive) | 4.57 µM and 6.37 µM and > 79 µM (inactive)
